Test results taken from patent US6352709B1, “Localized use of nitric oxide-adducts to prevent internal tissue damage” (NitroMed, Inc., priority 1993, dated 2002).

Tests used:
[1] = test system: balloon-injured rabbit femoral artery; assay: Neointimal proliferation after balloon injury of femoral artery (morphometry); assay type: in vivo; conditions: 14 days after balloon injury, local delivery 15 minutes
Description: Femoral arteries were isolated and balloon injured as described below. pS-BSA or pS-NO-BSA were applied in a paired fashion directly into the arterial lumen for 15 minutes and then blood flow was re-established. […] Neointimal proliferation is reported as the absolute neointimal area in FIG. 5A and as a ratio of neointima/media in FIG. 5B in 4-6 segments from each artery. Data are expressed as mean +/− SEM and are derived from 15 vessels in the BSA and S-NO-BSA groups, 11 vessels in the PS-BSA group, 7 vessels in the PS-NO-BSA and SHAM groups, and 5 in the SNP group. *P<0.05, pS-NO-BSA vs. PS-BSA. +/+P<0.05 Sodium nitroprusside vs. pS-BSA for both FIGS. 5A and 5B.
Animal Preparation: All animal preparations were performed within the institutional guidelines of the Brockton/West Roxbury Department of Veteran Affairs Medical Center and Boston University Medical Center, and in accordance with the guiding principles of the American Physiological Society. New Zealand white rabbits (3.5-4.2 kg) of either sex were premedicated with 5 mg/kg intramuscular (IM) xylazine hydrochlolide (Miles Pharmaceuticals, Shawnee Mission, Kans.), and 0.1 mg/kg subcutaneous (SC) atropine sulfate (Lyphomed, Deerfield, Ill.) fifteen minutes prior to the induction of anesthesia. Anesthesia was induced with 40 mg/kg IM ketamine hydrochloride (Fort Dodge Laboratories, Fort Dodge, Ind.) and 5 mg/kg IM acepromazine maleate (Aveco Company, Inc., Fort Dodge, Ind.). Additional doses of ketamine hydrochloride were administered as necessary to maintain anesthesia. For survival studies, 100,000 U penicillin G (Apothecon of Bristol-Myers Squibb, Princeton, N.J.), was administered IM perioperatively. The skin over the femoral arteries was next infiltrated with 1% lidocaine (Astra Pharmaceuticals, Inc., Westborough, Mass.) and the common femoral arteries were exposed from the inguinal ligament to the superficial femoral artery. Arteries were cleared of connective tissue, side branches were ligated, and the superficial femoral artery was suspended with silk ties. A 1.5-to-2.0 cm length of femoral artery was isolated from the circulation proximally and distally with neurosurgical microaneurysm clips. The superficial femoral-artery was cannulated with a 2F Fogarty balloon catheter (American Edwards Laboratories, Santa Ana, Calif.) that was passed into the isolated segment of femoral artery. The balloon was inflated with sufficient air to generate slight resistance and withdrawn three times. A 20 g angiocath was then inserted in the arteriotomy and 1 ml of 25.8 mg/ml PS-NO-BSA or 49.2 mg/ml S-NO-BSA was administered over 15 minutes. The contralateral femoral artery was prepared identically and an appropriate control (25.8 mglml pS-BSA, 49.2 mg/ml BSA or 0.66 mg/ml sodium nitroprusside) was administered. For binding studies, 0.5 ml of [^125I]-labeled nitrosylated albumin or control was administered. Following administration of the agent, the superficial femoral artery was ligated and flow reestablished. Sham-operated animals underwent surgical exposure and sidebranch ligation, but no balloon injury was performed or local delivery administered. The area of balloon injury was marked by surgical staples in the adjacent muscle fascia. For chronic studies, the incision was closed with subcuticular absorbable suture and the animals allowed to recover. For acute studies, blood was allowed to circulate through the treated areas for 15 minutes prior to vessel harvest. In some experiments, a distant control vessel, the right carotid artery, was isolated and harvested without any other manipulation.
A 7F plastic cannula was inserted into the abdominal aorta and the vessels perfused clear with saline followed by fixation at 100 mm Hg pressure with 10% buffered formalin. The vessels were stored in 10% buffered formalin and the samples paraffin-embedded and microtome-sectioned. […]

platelet deposition [2] = assay: Indium-111-labeled platelet deposition and thrombus on coated dacron grafts in transected carotid arteries; assay type: in vivo, dogs; conditions: for average percent increase in graft weight due to thrombus formation on the luminal surface: dacron grafts, dog carotid artery, 2 hours, three grafts
Description: This method requires the removal of platelets from an animal or human subject. The platelets are labeled with a radioactive material such as Indium^111, which emits gamma rays, detectable by a gamma counter placed 3 to 6 inches away from the source of radioactive platelets. The labeled platelets are either reinjected into the animal or human […], or contacted with the artificial surface […]. Platelets will adhere to artificial surfaces or acutely damaged arterial surfaces. Thus, the number of normal platelets and radioactive platelets which stick to the surface is an indication of the thrombogenicity of the surface.
First, the inventors coated dacron grafts and cardiac catheters with S-nitroso-bovine serum albumin (BSA). In three separate experiments, an identical pair of 6 mm. (internal diameter) knitted dacron grafts, 5 cm. in length, were prepared for surgical placement in the transected carotid arteries of three anesthetized dogs. No heparin was given. One graft was soaked in 5% BSA and the other graft was soaked in 5% BSA combined with 0.5 mM nitric oxide (producing S-nitroso-BSA) for one hour prior to insertion, and then rinsed in saline. The grafts were sutured in place with a continuous 6-0 proline suture.
Indium^111-labeled platelets are very useful in detecting platelet accumulation on vascular grafts. Therefore, Indium^111-labeled platelets were prepared according to standard methods described in Heyns “Method for Labeling Platelets with In^111-oxine”. In: Platelet Kinetics and Imaging Vol. II, Editors Heyns et al., CRC Press, 1985; and Sheffel et al., J. Nucl. Med., 20: 524-531, 1979, and injected prior to insertion of the grafts. […] The grafts were then placed in a Nal gamma well counter and counted for four minutes.

platelet deposition [3] = assay: Indium-111-labeled platelet deposition on coated 5 FR USC1 catheters in femoral arteries; assay type: in vivo, dogs; conditions: 5 FR catheters in dog femoral arteries 2 hours, counted four minutes, average of three
Description: In addition, three pairs of 5 FR USC1 catheters were studied. One catheter was soaked in 5% BSA, while the other catheter was soaked in a mixture of S-nitroso BSA for one hour. The catheters were rinsed with saline and one each was inserted into the right or left femoral arteries of the dogs described above, and left for two hours. Each catheter was flushed with normal saline every one-half hour, but no heparin was given. The catheters were then removed and rinsed with saline. Equal lengths of the catheters were cut from the distal ends and each one was placed in a Nal gamma counter and the radioactivity was counted for four minutes.

platelet deposition [4] = assay: Indium-111-labeled platelet deposition on coated, dried and stored PVC tubing placed as femoral artery shunt; assay type: in vivo, dog; conditions: PVC tubing used three days after coating, femoral artery shunt 2 hours
Description: The inventors conducted an additional experiment to investigate whether S-nitroso-BSA can be used to coat a surface such as polyvinyl chloride (PVC), and in addition, whether such surfaces can be treated at one time, and used at a later time. In this experiment, three pieces of PVC, 3 mm in internal diameter and 2 cm. in length were soaked in BSA for 4 hours, allowed to dry, and placed in a dark place. Three identical pieces of PVC tubing were soaked in an S-nitroso-BSA solution for 4 hours, dried, and also placed in the dark.
Three days after coating, a pair of PVC tubing pieces, one coated with BSA, and one coated with S-nitroso-BSA, were placed as a shunt in each of the two femoral arteries of a dog. The dog was injected with Indium^111-labeled platelets as previously described. Two hours after the PVC shunts were placed in the circulation with radioactive platelets, they were removed and placed in the Nal gamma counter.

damaged coronary artery = assay: Cyclic flow reductions (CFRs) in damaged, stenosed coronary artery; assay type: in vivo, dogs; conditions: approximately 0.5 mM NO, given selectively into circumflex coronary artery
platelet deposition [5] = conditions: systemic administration, porcine carotid model; cited from earlier work
[6] = test system: clotting on the catheter wall; assay: Clotting on coated 3 FR USC1 catheters implanted in carotid artery; assay type: in vivo, dogs; conditions: catheters soaked 12 hours, in dog carotid artery 6-8 hours, no heparin
Description: In five anesthetized dogs, both carotid arteries were exposed. Two 3 FR USC1 catheters were prepared for arterial implantation. One catheter was soaked in a 5% BSA solution for 12 hours, while the other was soaked in a 5% BSA solution which also contained 1 mg/ml of sodium nitroprusside. One each of the two coated catheters was placed randomly in the right or left carotid artery of the dog through a small incision sealed with a 6-0 proline suture. The catheters were advanced for 5 cm into the arterial lumen. The dogs were not given any heparin. The catheters were removed 6-8 hours later and examined for clotting on the catheter wall and at the site where the catheter entered the carotid wall.

Compound | neointima/media ratio [1] | neointimal area [1] | average percent increase in graft weight due to thrombus formation on the luminal surface (platelet deposition [2]) | Indium^111-labeled platelet counts on catheter (platelet deposition [3]) | Indium^111-labeled platelet counts on PVC shunt (platelet deposition [4]) | passivation of damaged arterial wall compared with sodium nitroprusside (damaged coronary artery) | reduction in platelet deposition (platelet deposition [5]) [fold] | clotting on the catheter wall and entry site [6] | Indium^111-labeled platelet counts on graft (platelet deposition [2]; dacron grafts soaked 1 h, in dog carotid artery 2 hours, average of three grafts)
S-nitroso-bovine serum albumin [S-nitroso-BSA] | 0.72+/−0.084 | 1.83+/−0.18 ×10^5 μm^2 | 196% +/−71% | 2,850±800 counts | 97,510 counts/4 minutes | better passivation and the effect lasts longer | – | – | –
[NH-]c1c[n+](N2CCOCC2)no1 [SIN-1] | – | – | – | – | – | – | 2.3 | – | –
bovine serum albumin [BSA, reference compound] | 1.07+/−0.167 | 2.54+/−0.33 ×10^5 μm^2 | 410% +/−97% | 9,000±1,100 counts | 200,870 counts/4 minutes | – | – | considerably more clotting | 654,000 +/−89,000 counts/4 minutes
